# In ChEMBL document CHEMBL1201862, “PubChem BioAssay data set” (2004):
# Calls of active or inactive are those of the source.
# How the values were obtained:
# [1] = inhibitors of intracellular T. cruzi replication, confirmation, NIH3T3 host cells, beta-gal luminescence (AID 2044); type: functional, cell-based;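 further: intracellular parasites grown in NIH/3T3 mouse fibroblasts as host cells; luminescent beta-galactosidase reporter signal from transgenic T. cruzi replicating inside host cells; inhibitors lower the luminescence signal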
# [2] = cytotoxicity toward NIH3T3 fibroblasts, dose response, counter-screen, cell-based, ATP luminescence, mouse fibroblasts (AID 2010); type: functional;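 further: cells exposed to compound for about 90 hours before reading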
# INS1 = experiment: beta cell apoptosis inhibitors, cytokine rescue, dose response, luminescence, retest (AID 449756); type: functional, cell-based; conditions: Rattus norvegicus;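 further: cell death triggered by IL-1 beta plus TNF-alpha plus IFN-gamma mixture; protective hits raise ATP signal compared with cytokine alone wells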
# [3] = test system: Streptococcus sp. 'group A'; experiment: growth inhibition of control SK(-) GAS strain, dose response, counter-screen for streptokinase expression inhibitor project, luminescence, kanamycin, BacTiterGlo, confirmation (AID 1900); type: functional, organism-based
# Streptococcus = experiment: Group A Streptococcus viability loss, dose response, counter-screen for streptokinase expression inhibitor project, luminescence, BacTiterGlo (AID 1915); type: functional, organism-based;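 further: potency for reduction of bacterial viability or growth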
# Cytochrome P450 2C9 = Cytochrome P450 2C9 (Homo sapiens, UniProt P11712)
# Cytochrome P450 3A4 = Cytochrome P450 3A4 (Homo sapiens, UniProt P08684);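 further: CYP3A4 tested as one member of a cytochrome P450 panel screen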
# Cytochrome P450 2D6 = Cytochrome P450 2D6 (Homo sapiens, UniProt P10635);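 further: CYP2D6 member of a cytochrome P450 panel assay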
# Cytochrome P450 2C19 = Cytochrome P450 2C19 (Homo sapiens, UniProt P33261); experiment: Cytochrome panel assay with activity outcomes. Panel member name: p450-cyp2c19 Compounds with AC50 equal or less than 10 uM are considered active; type: functional
# Chain of Cytochrome P450 2C19 (P33261 whole entry): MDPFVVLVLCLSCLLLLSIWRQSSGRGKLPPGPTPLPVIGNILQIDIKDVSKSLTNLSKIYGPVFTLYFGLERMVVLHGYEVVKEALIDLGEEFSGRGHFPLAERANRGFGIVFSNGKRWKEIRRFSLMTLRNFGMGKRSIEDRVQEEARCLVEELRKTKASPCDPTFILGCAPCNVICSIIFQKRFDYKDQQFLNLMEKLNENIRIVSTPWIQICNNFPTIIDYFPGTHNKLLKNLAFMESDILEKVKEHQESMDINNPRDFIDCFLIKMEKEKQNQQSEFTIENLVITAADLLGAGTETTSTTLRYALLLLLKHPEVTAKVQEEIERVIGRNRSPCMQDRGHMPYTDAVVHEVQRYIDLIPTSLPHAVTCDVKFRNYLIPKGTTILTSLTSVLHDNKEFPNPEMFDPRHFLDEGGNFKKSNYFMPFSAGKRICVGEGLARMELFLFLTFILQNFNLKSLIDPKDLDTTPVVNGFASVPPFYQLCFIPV
# Chain of Cytochrome P450 2C9 (P11712 whole entry): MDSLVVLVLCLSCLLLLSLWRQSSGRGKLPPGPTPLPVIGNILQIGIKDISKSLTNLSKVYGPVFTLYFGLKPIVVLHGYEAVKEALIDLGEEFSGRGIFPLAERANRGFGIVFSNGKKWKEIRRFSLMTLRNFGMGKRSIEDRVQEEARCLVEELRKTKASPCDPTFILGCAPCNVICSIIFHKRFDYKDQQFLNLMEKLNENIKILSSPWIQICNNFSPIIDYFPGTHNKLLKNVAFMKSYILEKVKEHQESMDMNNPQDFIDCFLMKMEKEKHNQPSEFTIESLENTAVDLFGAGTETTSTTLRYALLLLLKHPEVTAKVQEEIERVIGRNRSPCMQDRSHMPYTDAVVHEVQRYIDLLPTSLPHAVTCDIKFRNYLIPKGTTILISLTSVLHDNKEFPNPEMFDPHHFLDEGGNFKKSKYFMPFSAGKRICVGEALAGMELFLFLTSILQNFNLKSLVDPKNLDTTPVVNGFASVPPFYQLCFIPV
# Chain of Cytochrome P450 2D6 (P10635 whole entry): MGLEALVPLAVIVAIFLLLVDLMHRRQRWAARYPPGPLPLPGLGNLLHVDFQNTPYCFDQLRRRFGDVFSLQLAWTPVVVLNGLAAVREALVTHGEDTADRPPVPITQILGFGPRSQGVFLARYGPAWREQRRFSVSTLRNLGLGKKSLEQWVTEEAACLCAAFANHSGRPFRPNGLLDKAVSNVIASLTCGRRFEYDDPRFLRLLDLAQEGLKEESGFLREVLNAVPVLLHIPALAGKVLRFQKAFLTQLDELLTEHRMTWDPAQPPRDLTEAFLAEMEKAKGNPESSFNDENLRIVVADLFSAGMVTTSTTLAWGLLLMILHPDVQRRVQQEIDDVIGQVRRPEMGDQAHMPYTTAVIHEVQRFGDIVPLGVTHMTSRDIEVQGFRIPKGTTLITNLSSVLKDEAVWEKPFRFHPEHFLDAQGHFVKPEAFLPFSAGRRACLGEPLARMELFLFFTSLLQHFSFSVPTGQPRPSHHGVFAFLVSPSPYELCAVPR
# Chain of Cytochrome P450 3A4 (P08684 whole entry): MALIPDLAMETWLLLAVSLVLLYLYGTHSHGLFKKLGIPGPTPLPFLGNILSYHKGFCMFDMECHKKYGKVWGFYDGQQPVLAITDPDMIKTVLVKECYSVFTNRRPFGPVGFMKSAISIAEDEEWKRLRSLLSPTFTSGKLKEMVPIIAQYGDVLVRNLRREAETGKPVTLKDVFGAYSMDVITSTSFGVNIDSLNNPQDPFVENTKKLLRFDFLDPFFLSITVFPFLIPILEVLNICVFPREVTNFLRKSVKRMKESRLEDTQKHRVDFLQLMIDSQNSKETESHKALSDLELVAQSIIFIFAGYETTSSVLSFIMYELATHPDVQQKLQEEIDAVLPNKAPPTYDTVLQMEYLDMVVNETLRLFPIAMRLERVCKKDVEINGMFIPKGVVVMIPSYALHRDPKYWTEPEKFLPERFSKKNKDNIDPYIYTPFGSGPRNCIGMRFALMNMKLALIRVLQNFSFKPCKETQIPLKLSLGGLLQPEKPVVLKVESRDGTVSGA
compound,measurement,setting,value
CCOc1ccc(N(CC(=O)NCCC2=CCCCC2)S(=O)(=O)c2ccccc2)cc1,EC50,[1],2.58 µM (active)
same,EC50,[2],10.6 µM (active)
Cc1cc(N/N=C/c2cccc(Cl)c2)nc(-n2nc(C)cc2C)n1,AC50,INS1,2.69 µM (active)
same,EC50,[3],1.34 µM (active)
same,EC50,Streptococcus,1.61 µM (active)
c1ccc(-c2nc3ccccc3o2)nc1,AC50,Cytochrome P450 2C9,39.8 µM (inconclusive)
CSc1nsc(SC)c1C(=O)Nc1ccc(C)cc1,AC50,Cytochrome P450 2C9,15.8 µM (inconclusive)
COc1ccc2c(c[n+](C)c3c4cc5c(cc4ccc23)OCO5)c1OC [CHELERYTHRINE],AC50,Cytochrome P450 3A4,31.6 µM (inconclusive)
same,AC50,Cytochrome P450 2C9,39.8 µM (inconclusive)
same,AC50,Cytochrome P450 2D6,25.1 µM (inconclusive)
C[n+]1ccc(/C=C/c2ccc(Br)cc2)cc1,AC50,Cytochrome P450 2C19; read-out: AC50,3.98 µM (inconclusive)
c1ccc(CNc2cc(-c3ccoc3)ncn2)cc1,AC50,Cytochrome P450 3A4,12.6 µM (inconclusive)
O=C(c1csnn1)N1CCC2(CC1)CCN(c1ccncc1)CC2,AC50,Cytochrome P450 3A4,15.8 µM (inconclusive)
same,AC50,Cytochrome P450 2C19; read-out: AC50,39.8 µM (inconclusive)
same,AC50,Cytochrome P450 2C9,15.8 µM (inconclusive)
COc1ccc(Cn2c(-c3ccc(Br)cc3)c[n+]3ccccc23)cc1,EC50,[1],0.822 µM (active)
same,EC50,[2],> 30 µM (not active)
CS(=O)(=O)N1CCC[C@@]2(CCN(C(=O)Nc3cccc(C#N)c3)C2)C1,AC50,Cytochrome P450 3A4,20 µM (inconclusive)
Cc1ccc2c(c1)N(CC(=O)N1CCCCC1c1cccnc1)C(=O)CO2 (stereo not drawn),EC50,[1],0.482 µM (active)
same,EC50,[2],> 60 µM (not active)
CCOC(=O)c1c(-c2ccccc2)csc1NC(=O)c1cccc(N2C(=O)CCC2=O)c1,AC50,Cytochrome P450 2D6,0.0112 µM (inconclusive)
O=C(c1cnccn1)N1CCC2(CCCN(c3ccccn3)C2)CC1,AC50,Cytochrome P450 3A4,7.94 µM (inconclusive)
same,AC50,Cytochrome P450 2D6,20 µM (inconclusive)
CCN(C(=O)c1cc2c(O)nc3ccc(C)cc3c2s1)c1cccc(C)c1,EC50,[1],0.708 µM (active)
same,EC50,[2],> 60 µM (inconclusive)
O=c1c(-c2ccc(Cl)cc2)nc2cnc(N3CCNCC3)nc2n1CCc1ccccc1,AC50,Cytochrome P450 3A4,31.6 µM (inconclusive)
CS(=O)(=O)N1CCC2(CCCN(Cc3ccc(C#N)cc3)C2)CC1,AC50,Cytochrome P450 2D6,20 µM (inconclusive)
O=C(CSc1ccccc1)Nc1ccc(N2CCN(c3ccccc3)CC2)c(F)c1,AC50,Cytochrome P450 2C19; read-out: AC50,39.8 µM (inconclusive)
same,AC50,Cytochrome P450 2C9,0.447 µM (inconclusive)
Cc1cc(C(C)(C)C)cc(CNC2CCCCC2)c1O,AC50,Cytochrome P450 2C9,7.94 µM (inconclusive)
CCN(CC)CCN(C(=O)c1ccc(S(=O)(=O)N(C)C2CCCCC2)cc1)c1nc2ccc(OC)cc2s1,EC50,[1],0.105 µM (active)
same,EC50,[2],> 60 µM (not active)
Cc1ccc(-n2nnnc2Sc2nc([N+](=O)[O-])nn2C)cc1C,AC50,Cytochrome P450 2C9,1.58 µM (inconclusive)
CCN1C(=O)C(CC(=O)Nc2ccc(OC)cc2)N(Cc2cccnc2)C1=S (stereo not drawn),AC50,Cytochrome P450 2C9,10 µM (inconclusive)
OC(COC(c1ccc(F)cc1)c1ccc(F)cc1)CN1CCc2ccccc2C1 (stereo not drawn),AC50,INS1,18.2 µM (active)
O=C(CCCn1cnc([N+](=O)[O-])n1)Nc1ccc(Cl)cc1Cl,EC50,[1],0.132 µM (active)
same,EC50,[2],> 60 µM (inconclusive)
CCOC(=O)c1cnc(-n2nc(C)cc2C)nc1Nc1ccc(O)cc1,AC50,INS1,1.67 µM (active)
CCOC(=O)c1c(NC(=O)C2=C(C)N=C(S)NC2c2ccccc2C(F)(F)F)sc(C)c1C (stereo not drawn),EC50,[1],2.4 µM (active)
same,EC50,[2],> 60 µM (not active)
Cc1ccc(-c2csc(NC(=O)c3c(C)noc3C)n2)s1,AC50,INS1,3.99 µM (active)
N#Cc1c(C(F)(F)F)cc(-c2ccco2)nc1SCc1ccncc1,EC50,[1],0.975 µM (active)
same,EC50,[2],4.74 µM (active)
O=C(COc1ccc([N+](=O)[O-])cc1)N[N-][C+]1CCCC1,AC50,Cytochrome P450 2C19; read-out: AC50,1.78 µM (inconclusive)
same,AC50,Cytochrome P450 2C9,0.0251 µM (inconclusive)
O=C(O)C/C(=C\c1ccco1)C(=O)O,AC50,Cytochrome P450 2C19,inconclusive
C[N+]1(C)CCC[C@@H](OC(=O)C(O)(c2ccccc2)c2ccccc2)C1,AC50,Cytochrome P450 2C19,inconclusive
same,AC50,Cytochrome P450 2D6,10 µM (inconclusive)
Cc1cc2nc(SCCOC(=O)Nc3ccc(Cl)cc3)nc(C)c2cc1C,AC50,Cytochrome P450 2C9,2.82 µM (inconclusive)
Cc1cnc(CNc2ncncc2-c2ccccc2CN(C)C)cn1,AC50,Cytochrome P450 2D6,39.8 µM (inconclusive)
COC(=O)[C@@]1(Cc2ccc(OC)cc2)[C@@H]2[C@@H](CC(=O)[C@H]2CC(=O)C(=O)N2CCCC2)CN1C(=O)c1ccccc1,AC50,Cytochrome P450 2C19; read-out: AC50,25.1 µM (inconclusive)
same,AC50,Cytochrome P450 2C9,20 µM (inconclusive)
O=C(c1ccncc1)N1CCC[C@@]2(CCN(Cc3nccs3)C2)C1,AC50,Cytochrome P450 2D6,20 µM (inconclusive)
COc1cc(CN2CCN(C(=O)COc3ccccc3)CC2)cc(OC)c1OC,AC50,Cytochrome P450 3A4,22.4 µM (inconclusive)
same,AC50,Cytochrome P450 2C9,22.4 µM (inconclusive)
CC(=O)N1N=C(c2cccc([N+](=O)[O-])c2)OC1c1ccccc1Cl (stereo not drawn),AC50,Cytochrome P450 3A4,39.8 µM (inconclusive)
O=C(Cn1ccc2ccccc2c1=O)N1CCN(c2cccc(Cl)c2)CC1,AC50,Cytochrome P450 3A4,3.16 µM (inconclusive)
same,AC50,Cytochrome P450 2C19; read-out: AC50,7.08 µM (inconclusive)
